What was measured:
[1] = target: recombinant purified human JAK3 (Homo sapiens (Human), UniProt P52333); assay: in vitro JAK kinase assay on ADP Glo platform, JAK3; type: biochemical; conditions: 50 μM ATP, 1 hr at room temperature; read-out: JAK-3 IC50
Protocol: (§1) NCEs were screened using in vitro JAK (1, 2 and 3) kinase assay on ADP Glo platform (Promega). Fixed amount of recombinant purified human JAK (25 ng of JAK1 and 10 ng of JAK2 and JAK3 per reaction, from Life Technologies Ltd) were incubated with increasing concentration of NCEs in 1× kinase reaction buffer (40 mM Tris-Cl, pH7.5, 20 mM MgCl2, 0.1 mg/ml BSA and 50 μM DTT). Enzymatic reaction was initiated by adding a substrate cocktail containing 50 μM of ATP (final concentration) and 5 μg for JAK1 and 2.5 μg for JAK2 and JAK3 of polyGln4Tyr1 (Signal Chem) in total 25 μl of reaction in 96 well plate. The reaction was incubated at room temperature for 1 hr.
(§2) After 1 hr of incubation equal volume (25 μl per reaction) of ADP Glo was added and incubated at room temperature for 40 min.
(§3) This was followed by addition of kinase detection reagent (50 μl per reaction) and incubation at room temperature for 30 min. Finally, plate was read for luminescence at an integration time of 500 millisecond per well.
(§4) Data were plotted taking Enzyme with no inhibitor set as the 100% kinase activity. IC50 values were calculated using Graph Pad Prism software.

[2] = target: recombinant purified human JAK2 (Homo sapiens (Human), UniProt O60674); assay: in vitro JAK kinase assay on ADP Glo platform, JAK2; type: biochemical; conditions: 50 μM ATP, 1 hr at room temperature; read-out: JAK-2 IC50
Chain of recombinant purified human JAK2 (O60674 whole entry): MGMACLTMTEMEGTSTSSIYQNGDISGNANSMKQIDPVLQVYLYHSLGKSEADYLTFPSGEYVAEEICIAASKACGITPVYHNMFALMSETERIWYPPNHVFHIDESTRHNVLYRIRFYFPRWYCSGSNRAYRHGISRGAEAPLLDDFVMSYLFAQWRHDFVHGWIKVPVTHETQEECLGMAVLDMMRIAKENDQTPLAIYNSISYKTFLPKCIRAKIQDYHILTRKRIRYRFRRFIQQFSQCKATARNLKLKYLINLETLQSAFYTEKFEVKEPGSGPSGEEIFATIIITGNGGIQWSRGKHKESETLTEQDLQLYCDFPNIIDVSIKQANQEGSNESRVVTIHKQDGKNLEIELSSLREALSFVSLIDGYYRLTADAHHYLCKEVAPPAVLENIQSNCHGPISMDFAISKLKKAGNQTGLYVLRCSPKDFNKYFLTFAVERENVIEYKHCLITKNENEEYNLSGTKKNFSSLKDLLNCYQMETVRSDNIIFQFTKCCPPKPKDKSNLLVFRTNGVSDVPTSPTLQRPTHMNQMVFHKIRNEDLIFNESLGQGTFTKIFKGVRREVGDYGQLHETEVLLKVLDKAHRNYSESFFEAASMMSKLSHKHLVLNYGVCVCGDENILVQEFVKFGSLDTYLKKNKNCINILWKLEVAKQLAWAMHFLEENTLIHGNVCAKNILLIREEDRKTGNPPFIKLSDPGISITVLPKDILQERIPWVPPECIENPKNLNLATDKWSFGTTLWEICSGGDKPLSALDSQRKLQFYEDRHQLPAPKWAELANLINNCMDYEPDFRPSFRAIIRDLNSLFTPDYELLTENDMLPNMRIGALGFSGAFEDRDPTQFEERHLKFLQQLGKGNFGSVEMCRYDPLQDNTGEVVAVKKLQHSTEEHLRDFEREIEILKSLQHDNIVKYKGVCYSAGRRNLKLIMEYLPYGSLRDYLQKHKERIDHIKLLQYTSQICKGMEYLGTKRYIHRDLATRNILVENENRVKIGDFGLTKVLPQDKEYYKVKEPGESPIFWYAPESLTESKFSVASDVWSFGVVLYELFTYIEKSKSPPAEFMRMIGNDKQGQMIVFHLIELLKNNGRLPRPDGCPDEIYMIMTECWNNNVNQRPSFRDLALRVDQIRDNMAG
Protocol: as §1, §2, §3, §4

[3] = target: recombinant purified human JAK1 (Homo sapiens (Human), UniProt P23458); assay: in vitro JAK kinase assay on ADP Glo platform, JAK1; type: biochemical; conditions: 50 μM ATP, 1 hr at room temperature
Chain of recombinant purified human JAK1 (P23458 whole entry): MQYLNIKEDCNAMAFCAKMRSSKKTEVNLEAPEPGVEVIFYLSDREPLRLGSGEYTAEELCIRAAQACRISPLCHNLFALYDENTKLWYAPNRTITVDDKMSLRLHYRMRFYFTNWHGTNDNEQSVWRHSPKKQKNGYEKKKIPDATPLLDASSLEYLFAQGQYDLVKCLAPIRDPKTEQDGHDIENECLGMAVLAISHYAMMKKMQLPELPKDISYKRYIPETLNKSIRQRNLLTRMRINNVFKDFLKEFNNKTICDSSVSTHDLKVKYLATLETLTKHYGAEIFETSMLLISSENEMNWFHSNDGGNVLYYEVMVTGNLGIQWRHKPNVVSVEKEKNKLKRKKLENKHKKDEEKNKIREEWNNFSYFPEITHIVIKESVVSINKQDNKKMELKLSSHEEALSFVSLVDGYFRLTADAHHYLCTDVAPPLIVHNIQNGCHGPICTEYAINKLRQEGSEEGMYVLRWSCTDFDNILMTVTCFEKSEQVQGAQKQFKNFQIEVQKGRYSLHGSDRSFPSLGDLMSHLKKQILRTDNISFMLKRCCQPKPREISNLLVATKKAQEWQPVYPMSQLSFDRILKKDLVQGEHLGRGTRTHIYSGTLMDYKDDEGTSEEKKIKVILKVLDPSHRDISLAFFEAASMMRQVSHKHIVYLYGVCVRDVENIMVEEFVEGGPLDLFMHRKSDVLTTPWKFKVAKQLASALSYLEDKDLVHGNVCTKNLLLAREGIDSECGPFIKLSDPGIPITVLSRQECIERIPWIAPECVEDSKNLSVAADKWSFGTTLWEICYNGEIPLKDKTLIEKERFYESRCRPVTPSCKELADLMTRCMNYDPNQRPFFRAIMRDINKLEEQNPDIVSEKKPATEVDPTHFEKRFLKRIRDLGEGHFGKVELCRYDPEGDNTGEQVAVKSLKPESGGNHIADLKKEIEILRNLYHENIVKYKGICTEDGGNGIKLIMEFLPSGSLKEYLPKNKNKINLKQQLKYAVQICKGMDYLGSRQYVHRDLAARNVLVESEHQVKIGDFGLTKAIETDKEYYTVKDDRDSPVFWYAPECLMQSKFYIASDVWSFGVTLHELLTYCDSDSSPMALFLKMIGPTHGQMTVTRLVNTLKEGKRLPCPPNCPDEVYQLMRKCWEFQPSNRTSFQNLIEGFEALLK
Protocol: as §1, §2, §3, §4

[4] = test system: PGPS arthritis, PAW inflammation; assay: Peptidogylcan Polysaccharide Polymers (PGPS) arthritis; type: in vivo, Sprague dawley rats; conditions: rats, values for day 16
Protocol: Female Sprague dawley rats were primed with an intra-articular injection of 20 μl of PGPS at 0.5 mg/ml of rhamnose in the right ankle. At 2 weeks the ankle diameters were measured with plethysmometer and rats assigned to groups of similar distribution of initial joint diameters. Rats then received their first dose of compound followed 1 h later by an i.v. injection of 0.5 ml of PGPS (0.5 mg/ml of rhamnose) in the tail vein. Compounds were dosed at 10 mg/kg and ankle diameters measured for 3 days [i.e. day 15, 16, 17]. Values are given for day 16.

Chain of recombinant purified human JAK3 (P52333 whole entry): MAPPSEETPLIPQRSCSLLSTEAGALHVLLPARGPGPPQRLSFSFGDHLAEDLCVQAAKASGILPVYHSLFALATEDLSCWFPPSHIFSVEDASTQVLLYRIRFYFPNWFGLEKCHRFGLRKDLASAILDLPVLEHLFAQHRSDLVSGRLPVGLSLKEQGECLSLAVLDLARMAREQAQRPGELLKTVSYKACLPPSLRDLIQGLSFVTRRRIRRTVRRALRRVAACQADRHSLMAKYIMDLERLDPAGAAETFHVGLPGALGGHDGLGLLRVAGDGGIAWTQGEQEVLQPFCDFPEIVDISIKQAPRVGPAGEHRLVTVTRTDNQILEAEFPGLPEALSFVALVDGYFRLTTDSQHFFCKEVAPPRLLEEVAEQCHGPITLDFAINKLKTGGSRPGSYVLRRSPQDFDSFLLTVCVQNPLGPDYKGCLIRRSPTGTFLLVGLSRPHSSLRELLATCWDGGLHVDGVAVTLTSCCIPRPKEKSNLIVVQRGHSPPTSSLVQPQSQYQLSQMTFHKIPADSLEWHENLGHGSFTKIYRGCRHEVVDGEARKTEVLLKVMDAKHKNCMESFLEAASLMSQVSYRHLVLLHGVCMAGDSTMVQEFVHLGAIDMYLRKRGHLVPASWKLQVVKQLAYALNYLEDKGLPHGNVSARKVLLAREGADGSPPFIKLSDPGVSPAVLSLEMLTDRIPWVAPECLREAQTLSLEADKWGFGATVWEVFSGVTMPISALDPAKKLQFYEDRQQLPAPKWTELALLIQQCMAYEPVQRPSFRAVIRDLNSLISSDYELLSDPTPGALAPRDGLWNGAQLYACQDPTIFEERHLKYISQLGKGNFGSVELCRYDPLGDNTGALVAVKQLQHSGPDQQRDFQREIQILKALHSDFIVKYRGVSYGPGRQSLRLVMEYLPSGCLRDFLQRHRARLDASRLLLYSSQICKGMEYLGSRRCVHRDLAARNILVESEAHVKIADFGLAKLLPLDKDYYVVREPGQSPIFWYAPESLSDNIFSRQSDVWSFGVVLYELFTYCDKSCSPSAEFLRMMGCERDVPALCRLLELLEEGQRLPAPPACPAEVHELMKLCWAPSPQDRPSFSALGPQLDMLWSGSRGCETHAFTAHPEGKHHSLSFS

| SMILES | IC50 [1] | IC50 [2] | IC50 [3] | % Reduction in PAW inflammation at dose 10 mg/Kg [4] |
| --- | --- | --- | --- | --- |
| COc1nnc(C2CCN(c3ccc(Nc4nccc(-c5ccc(C(=O)NCC#N)cc5)n4)cc3)CC2)o1 [Example 31, N-(cyanomethyl)-4-(2-((4-(4-(5-methoxy-1,3,4-oxadiazol-2-yl)piperidin-1-yl)phenyl)amino)pyrimidin-4-yl)benzamide] | 0.074 µM | 0.017 µM | 0.02 µM |  |
| N#CCNC(=O)c1ccc(-c2ccnc(Nc3ccc(N4CCC(N5CC6OCCOC6C5)C4)cc3)n2)cc1 (centres unmarked) [Example 35, N-(cyanomethyl)-4-(2-((4-(3-(tetrahydro-2H-[1,4]dioxino[2,3-c]pyrrol-6(3H)-yl)pyrrolidin-1-yl)phenyl)amino)pyrimidin-4-yl)benzamide] | 0.138 µM | 0.021 µM | 0.015 µM |  |
| N#CCNC(=O)c1ccc(-c2ccnc(Nc3ccc(N4CCC(N5CC6CC(C5)O6)CC4)cc3)n2)cc1 [Example 17, 4-(2-((4-(4-(6-oxa-3-azabicyclo[3.1.1]heptan-3-yl)piperidin-1-yl)phenyl)amino)pyrimidin-4-yl)-N-(cyanomethyl)benzamide] | 0.069 µM | 0.008 µM | 0.013 µM | 57% |
| N#CCNC(=O)c1ccc(-c2ccnc(Nc3ccc(N4CCN(C5CCOCC5)CC4)cc3)n2)cc1 [Example 15, N-(cyanomethyl)-4-(2-((4-(4-(tetrahydro-2H-pyran-4-yl)piperazin-1-yl)phenyl)amino)pyrimidin-4-yl)benzamide] | 0.088 µM | 0.011 µM | 0.016 µM |  |
| CC(=O)N1C2CC1CN(C1CCN(c3ccc(Nc4nccc(-c5ccc(C(=O)NCC#N)cc5)n4)cc3)CC1)C2 [Example 39, 4-(2-((4-(4-(6-acetyl-3,6-diazabicyclo[3.1.1]heptan-3-yl)piperidin-1-yl)phenyl)amino)pyrimidin-4-yl)-N-(cyanomethyl)benzamide] | 0.0507 µM |  | 0.0088 µM |  |
| N#CCNC(=O)c1ccc(-c2ccnc(Nc3ccc(N4CCC(n5cncn5)CC4)cc3)n2)cc1 [Example 4, 4-(2-((4-(4-(1H-1,2,4-triazol-1-yl)piperidin-1-yl)phenyl)amino)pyrimidin-4-yl)-N-(cyanomethyl)benzamide] | 0.066 µM | 0.017 µM | 0.021 µM | 52% |
| N#CCNC(=O)c1ccc(-c2ccnc(Nc3ccc(N4CCC(N5CCOC5=O)CC4)cc3)n2)cc1 [Example 12, N-(cyanomethyl)-4-(2-((4-(4-(2-oxooxazolidin-3-yl)piperidin-1-yl)phenyl)amino)pyrimidin-4-yl)benzamide] | 0.078 µM |  | 0.025 µM |  |
| N#CCNC(=O)c1ccc(-c2ccnc(Nc3ccc(N4CCN(C5CCS(=O)(=O)CC5)CC4)cc3)n2)cc1 [Example 7, N-(cyanomethyl)-4-(2-((4-(4-(1,1-dioxidotetrahydro-2H-thiopyran-4-yl)piperazin-1-yl)phenyl)amino)pyrimidin-4-yl)benzamide] | 0.062 µM | 0.012 µM | 0.014 µM |  |
| N#CCNC(=O)c1ccc(-c2ccnc(Nc3ccc(N4CCN(C5=NCCN5)CC4)cc3)n2)cc1 [Example 33, N-(cyanomethyl)-4-(2-((4-(4-(4,5-dihydro-1H-imidazol-2-yl)piperazin-1-yl)phenyl)amino)pyrimidin-4-yl)benzamide] | 0.054 µM | 0.011 µM | 0.02 µM |  |
| N#CCNC(=O)c1ccc(-c2ccnc(Nc3ccc(N4CCC(N5CCCC5)C4)cc3)n2)cc1 (centres unmarked) [Example 6, 4-(2-((4-([1,3′-Bipyrrolidin]-1′-yl)phenyl)amino)pyrimidin-4-yl)-N-(cyanomethyl)benzamide] | 0.155 µM | 0.019 µM | 0.016 µM |  |
| N#CCNC(=O)c1ccc(-c2ccnc(Nc3ccc(N4CCC(N5CCCC5=O)CC4)cc3)n2)cc1 [Example 1, N-(cyanomethyl)-4-(2-((4-(4-(2-oxopyrrolidin-1-yl)piperidin-1-yl)phenyl)amino)pyrimidin-4-yl)benzamide] | 0.072 µM |  | 0.0121 µM | 51% |
| N#CCNC(=O)c1ccc(-c2ccnc(Nc3ccc(N4CCN(C5CCS(=O)(=O)C5)CC4)cc3)n2)cc1 (centres unmarked) [Example 9, N-(cyanomethyl)-4-(2-((4-(4-(1,1-dioxidotetrahydrothiophen-3-yl)piperazin-1-yl)phenyl)amino)pyrimidin-4-yl)benzamide] | 0.04 µM | 0.008 µM | 0.014 µM |  |
| N#CCNC(=O)c1ccc(-c2ccnc(Nc3ccc(N4CCC(N5CCOCC5)CC4)cc3)n2)cc1 [Example 3, N-(cyanomethyl)-4-(2-((4-(4-morpholinopiperidin-1-yl)phenyl)amino)pyrimidin-4-yl)benzamide] |  |  |  | 56% |

More lines, main results first:

| IC50 [1] | IC50 [2] | IC50 [3] | SMILES | % Reduction in PAW inflammation at dose 10 mg/Kg [4] |
| --- | --- | --- | --- | --- |
| 0.059 µM | 0.0043 µM | 0.0025 µM | Cc1cnc(Nc2ccc(N3CCC(N4CCC5(CCCO5)CC4)CC3)cc2)nc1-c1ccc(C(=O)NCC#N)cc1 [Example 42, 4-(2-((4-(4-(1-oxa-8-azaspiro[4.5]decan-8-yl)piperidin-1-yl)phenyl)amino)-5-methylpyrimidin-4-yl)-N-(cyanomethyl)benzamide] |  |
| 0.051 µM | 0.004 µM | 0.0051 µM | N#CCNC(=O)c1ccc(-c2ccnc(Nc3ccc(N4CCC(N5CCCS5(=O)=O)CC4)cc3)n2)cc1 [Example 2, N-(cyanomethyl)-4-(2-((4-(4-(1,1-dioxidoisothiazolidin-2-yl)piperidin-1-yl)phenyl)amino)pyrimidin-4-yl)benzamide] |  |
| 0.04 µM | 0.007 µM | 0.01 µM | N#CCNC(=O)c1ccc(-c2ccnc(Nc3ccc(N4CCC(c5nnco5)CC4)cc3)n2)cc1 [Example 19, 4-(2-((4-(4-(1,3,4-oxadiazol-2-yl)piperidin-1-yl)phenyl)amino)pyrimidin-4-yl)-N-(cyanomethyl)benzamide] |  |
| 0.055 µM | 0.006 µM | 0.011 µM | N#CCNC(=O)c1ccc(-c2ccnc(Nc3ccc(N4CCC(N5CCC6(CCC(=O)O6)CC5)CC4)cc3)n2)cc1 [Example 28, N-(cyanomethyl)-4-(2-((4-(4-(2-oxo-1-oxa-8-azaspiro[4.5]decan-8-yl)piperidin-1-yl)phenyl)amino)pyrimidin-4-yl)benzamide] |  |
| 0.05 µM | 0.011 µM | 0.009 µM | N#CCNC(=O)c1ccc(-c2ccnc(Nc3ccc(N4CCC(N5CCNC5=O)CC4)cc3)n2)cc1 [Example 18, N-(cyanomethyl)-4-(2-((4-(4-(2-oxoimidazolidin-1-yl)piperidin-1-yl)phenyl)amino)pyrimidin-4-yl)benzamide] |  |
| 0.0469 µM |  | 0.0092 µM | Cc1nnc(N2CCN(c3ccc(Nc4nccc(-c5ccc(C(=O)NCC#N)cc5)n4)cc3)CC2)o1 [Example 36, N-(cyanomethyl)-4-(2-((4-(4-(5-methyl-1,3,4-oxadiazol-2-yl)piperazin-1-yl)phenyl)amino)pyrimidin-4-yl)benzamide] |  |
| 0.049 µM | 0.005 µM | 0.01 µM | N#CCNC(=O)c1ccc(-c2ccnc(Nc3ccc(N4CCC(N5CC6OCCOC6C5)CC4)cc3)n2)cc1 (centres unmarked) [Example 27, N-(cyanomethyl)-4-(2-((4-(4-(tetrahydro-2H-[1,4]dioxino[2,3-c]pyrrol-6(3H)-yl)piperidin-1-yl)phenyl)amino)pyrimidin-4-yl)benzamide] |  |
| 0.032 µM | 0.0028 µM | 0.0013 µM | Cc1cnc(Nc2ccc(N3CCC(N4CCOCC4)CC3)cc2)nc1-c1ccc(C(=O)NCC#N)cc1 [Example 40, N-(cyanomethyl)-4-(5-methyl-2-((4-(4-morpholinopiperidin-1-yl)phenyl)amino)pyrimidin-4-yl)benzamide] |  |
| 0.0107 µM | 0.0025 µM | 0.0006 µM | Cc1cnc(Nc2ccc(N3CCC(N4CCCC4=O)CC3)cc2)nc1-c1ccc(C(=O)NCC#N)cc1 [Example 41, N-(cyanomethyl)-4-(5-methyl-2-((4-(4-(2-oxopyrrolidin-1-yl)piperidin-1-yl)phenyl)amino)pyrimidin-4-yl)benzamide] |  |
|  |  | 0.012 µM | Cc1nnc(C2CCN(c3ccc(Nc4nccc(-c5ccc(C(=O)NCC#N)cc5)n4)cc3)CC2)o1 [Example 25, N-(cyanomethyl)-4-(2-((4-(4-(5-methyl-1,3,4-oxadiazol-2-yl)piperidin-1-yl)phenyl)amino)pyrimidin-4-yl)benzamide] | 63% |
| 0.0523 µM | 0.0026 µM | 0.0012 µM | Cc1nnc(C2CCN(c3ccc(Nc4ncc(C)c(-c5ccc(C(=O)NCC#N)cc5)n4)cc3)CC2)o1 [Example 43, N-(cyanomethyl)-4-(5-methyl-2-((4-(4-(5-methyl-1,3,4-oxadiazol-2-yl)piperidin-1-yl)phenyl)amino)pyrimidin-4-yl)benzamide] |  |
